Source: publication PMC3486708 (Journal of medicinal chemistry, 2012)

Assays:
MC65 cells [1] = assay: Toxicity to MC65 cells in the presence of tetracycline; assay type: cell-based; conditions: median toxic concentration to MC65 cells, presence of TC
ABCA1 = ABCA1 gene expression in Huh-7 cells; assay type: cell-based, human; conditions: 24 h, compared to mock-treated cells
MC65 cells [2] = assay: MC65 cell protection assay; assay type: cell-based; conditions: for protection of MC65 cell death (in words): MC65 cells, absence of TC

Row | Compound | TD50 (MC65 cells [1]) | expression of ABCA1 (ABCA1) | protection of MC65 cell death (MC65 cells [2]; up to 50 μM) | protection of MC65 cell death (in words) (MC65 cells [2])
1 | Cc1cc2c(c(=O)o1)C=C1CC[C@H](C(C)CNCc3ccc(O)cc3)C[C@@H]1O2 (mixture of isomers) [Compound 2b, (5aS,7S)-3-Methyl-7-[(1R) and (1S)1-(4-hydroxybenzylamino)propan-2-yl]-1H,7H-5a,6,8,9-tetrahydro-1-oxopyrano[4,3-b][1]benzopyran] | 49.3 ± 0.127 µM | significantly increased |  | 
2 | CCCCCCCCCCC(C)(C)C(=O)Nc1c(OC)cc(OC)cc1OC [CI-976, reference compound] |  | significantly increased | inactive | 
3 | Cc1cc2c(c(=O)o1)C=C1CC[C@H](C(C)Cn3cnc(N)c4ncnc3-4)C[C@@H]1O2 (stereo partly shown) [Compound 1] | 39.0 ± 1.12 µM | significantly increased |  | 
4 | Cc1cc2c(c(=O)o1)C=C1CC[C@H](C(C)CNCc3ccc(CO)cc3)C[C@@H]1O2 (stereo partly shown) [Compound 2e] | >50 µM |  |  | 
5 | Cc1cc2c(c(=O)o1)C=C1CC[C@H](C(C)CNCc3ccc(C#N)cc3)C[C@@H]1O2 (stereo partly shown) [Compound 2i] |  |  |  | abolishes the activity
6 | Cc1cc2c(c(=O)o1)C=C1CC[C@H](C(C)CNCc3ccc(O)c(F)c3)C[C@@H]1O2 (stereo partly shown) [Compound 3f] | >50 µM |  |  | 
7 | Cc1cc2c(c(=O)o1)C=C1CC[C@H](C(C)CNCc3ccc(O)c4ccccc34)C[C@@H]1O2 (stereo partly shown) [Compound 4a] | 13.7 ± 0.704 µM | significantly increased |  | 
8 | CC(=O)Oc1ccccc1C(=O)NCC(C)[C@H]1CCC2=Cc3c(cc(C)oc3=O)O[C@H]2C1 (stereo partly shown) [Compound 6a] |  |  |  | inactive
9 | Cc1cc2c(c(=O)o1)C=C1CC[C@H](C(C)CNC(=O)c3ccccc3O)C[C@@H]1O2 (stereo partly shown) [Compound 6b] |  |  |  | poor activity
